Among the data in ChEMBL document CHEMBL1201862, “PubChem BioAssay data set” (2004) are EC50, IC50 and AC50 values, retold here.

The source made the active and inactive calls. Some results are limits rather than exact numbers.

One experiment has as its target Troponin, cardiac muscle (Homo sapiens, UniProt P19429+P45379+P63316). Put plainly: Fluorescence-based biochemical high throughput dose response assay for activators of the calcium sensitivity of cardiac Regulated Thin Filaments (RTF). [Related pubchem assays (depositor defined):AID493008, AID493018, AID504382, AID504383]. Type of experiment: protein-complex assay.

For experiment [1], the target named is Beta-lactamase (Pseudomonas aeruginosa, UniProt Q79MP6).
Chain of Beta-lactamase (Pseudomonas aeruginosa, UniProt Q79MP6) (Q79MP6 whole entry): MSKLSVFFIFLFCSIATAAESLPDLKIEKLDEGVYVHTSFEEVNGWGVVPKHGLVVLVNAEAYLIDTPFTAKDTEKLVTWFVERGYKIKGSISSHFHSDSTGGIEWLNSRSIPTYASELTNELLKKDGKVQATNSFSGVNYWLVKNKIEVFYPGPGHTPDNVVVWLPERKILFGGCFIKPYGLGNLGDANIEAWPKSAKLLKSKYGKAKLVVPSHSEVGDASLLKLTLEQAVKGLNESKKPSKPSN
Experiment [2] concerns HEK293. The experiment can be described thus: HEK cell cytotoxicity by LDH release, dose response, cytotoxicity control for IDE activator project, fluorescence, HEK cells (AID 588440).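 Further: cytotoxicity by LDH release measuring loss of membrane integrity.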 The following applies: Homo sapiens. Type of experiment: functional, cell-based. (In general: LDH leaks from cells whose membrane has failed.)
In experiment [3] the target is T1, Insulin-degrading enzyme (Homo sapiens, UniProt P14735).
T1 sequence (P14735 whole entry): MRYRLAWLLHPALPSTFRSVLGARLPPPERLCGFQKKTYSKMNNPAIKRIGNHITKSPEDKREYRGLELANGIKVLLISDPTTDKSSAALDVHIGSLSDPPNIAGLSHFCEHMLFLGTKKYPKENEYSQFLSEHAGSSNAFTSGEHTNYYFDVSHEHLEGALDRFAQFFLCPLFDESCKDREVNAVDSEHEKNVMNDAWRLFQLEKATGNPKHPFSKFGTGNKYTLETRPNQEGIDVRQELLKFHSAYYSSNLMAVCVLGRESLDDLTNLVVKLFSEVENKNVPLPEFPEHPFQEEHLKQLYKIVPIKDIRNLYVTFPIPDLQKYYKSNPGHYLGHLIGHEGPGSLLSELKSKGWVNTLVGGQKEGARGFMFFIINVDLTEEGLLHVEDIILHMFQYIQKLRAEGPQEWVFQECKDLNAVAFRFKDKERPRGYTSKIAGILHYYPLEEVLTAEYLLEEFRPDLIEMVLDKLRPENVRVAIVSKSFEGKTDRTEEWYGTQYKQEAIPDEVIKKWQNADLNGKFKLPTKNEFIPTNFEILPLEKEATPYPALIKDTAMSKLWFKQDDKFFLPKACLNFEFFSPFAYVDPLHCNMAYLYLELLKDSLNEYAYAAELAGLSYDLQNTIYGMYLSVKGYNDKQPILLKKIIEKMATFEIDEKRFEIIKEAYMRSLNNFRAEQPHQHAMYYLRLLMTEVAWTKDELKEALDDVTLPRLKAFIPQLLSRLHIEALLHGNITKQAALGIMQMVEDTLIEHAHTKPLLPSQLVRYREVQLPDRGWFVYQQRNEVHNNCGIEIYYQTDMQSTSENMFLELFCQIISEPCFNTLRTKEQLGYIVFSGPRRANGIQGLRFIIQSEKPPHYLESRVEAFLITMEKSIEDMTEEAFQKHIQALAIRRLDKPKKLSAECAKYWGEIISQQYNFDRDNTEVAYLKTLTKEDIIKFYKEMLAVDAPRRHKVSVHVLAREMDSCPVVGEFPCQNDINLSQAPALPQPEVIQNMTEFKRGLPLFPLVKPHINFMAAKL
Put plainly: activators of recombinant IDE enzyme, dose response, counter-screen for IDE activator project, biochemical, fluorescence polarization (AID 588681). (In general: Counterscreens check selectivity or assay interference.)

Experiment [4] in a line: fluorescence interference artefacts, compound only, dose response, artefact control for cardiac thin filament activator project, biochemical, no RTF in test wells (AID 504697).
The next experiment addresses ORF 73 (Human herpesvirus 8, UniProt O40947). The experiment can be described thus: inhibitors of C-LANA binding to LBS DNA, dose response, biochemical, fluorescence polarization, cherry-picked samples (AID 504725).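 Further: fluorescence polarization of a labeled DNA duplex reporting LANA DNA binding; potency is for inhibitors that block LANA binding to the DNA.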 Further details: species or system Human gammaherpesvirus 8. For orientation: Fluorescence polarisation rises when a labelled molecule tumbles more slowly, as on binding a larger partner.

Experiment [5] concerns HEK293. Put plainly: optical interference in Abeta FP readout, dose response, artefact control for IDE activator project, biochemical, fluorescence polarization (AID 588442). Type of experiment: functional, cell-based. The following applies: Homo sapiens.
Experiment [6] concerns the target Beta-lactamase (Salmonella choleraesuis (strain SC-B67), UniProt Q5J463).
Experiment [7] has as its target T1, Insulin-degrading enzyme. The experiment can be described thus: activators of endogenous IDE in HEK cells, dose response, cell-based, fluorescence polarization (AID 588439). Type of experiment: functional.
The target of experiment [8] is T2, Ubiquitin-conjugating enzyme E2 N (Homo sapiens, UniProt P61088).
T2 sequence (P61088 whole entry): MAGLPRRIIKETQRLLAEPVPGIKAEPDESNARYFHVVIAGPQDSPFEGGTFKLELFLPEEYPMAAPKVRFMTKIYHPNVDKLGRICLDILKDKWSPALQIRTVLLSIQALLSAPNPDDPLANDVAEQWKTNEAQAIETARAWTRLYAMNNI
Format: functional.

Another experiment concerns the target T3, Bcl-2-related protein A1 (Mus musculus, UniProt Q07440).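 Further: confirmatory dose–response counterscreen on Bfl-1, used to check hits from a UBC13 polyubiquitin inhibitor campaign.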
T3 sequence (Q07440 whole entry): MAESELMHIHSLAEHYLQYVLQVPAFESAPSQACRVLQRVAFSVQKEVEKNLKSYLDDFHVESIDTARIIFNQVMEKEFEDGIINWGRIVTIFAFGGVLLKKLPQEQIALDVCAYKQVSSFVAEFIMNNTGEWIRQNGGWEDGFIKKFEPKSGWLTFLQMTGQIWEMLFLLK
Format: functional.

For experiment [9], the target named is T2, Ubiquitin-conjugating enzyme E2 N. Type of experiment: functional. The source holds these as a separate data set.
The target of experiment [10] is T4, Tyrosine-protein phosphatase non-receptor type 7 (Homo sapiens, UniProt P35236).
T4 sequence (P35236 whole entry): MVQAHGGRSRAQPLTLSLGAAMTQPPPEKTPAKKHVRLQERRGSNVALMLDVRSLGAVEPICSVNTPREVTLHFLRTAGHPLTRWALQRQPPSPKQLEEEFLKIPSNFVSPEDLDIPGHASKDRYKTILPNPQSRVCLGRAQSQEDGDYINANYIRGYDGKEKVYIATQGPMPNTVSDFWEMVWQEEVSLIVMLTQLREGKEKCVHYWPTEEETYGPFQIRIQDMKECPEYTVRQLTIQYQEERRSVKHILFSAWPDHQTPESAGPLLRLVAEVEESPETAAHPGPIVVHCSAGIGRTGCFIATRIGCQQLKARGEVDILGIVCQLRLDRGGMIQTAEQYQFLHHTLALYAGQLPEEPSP
Format: functional.

The target in experiment [11] is T5, Tyrosine-protein phosphatase non-receptor type 22 (Homo sapiens, UniProt Q9Y2R2).
T5 sequence (Q9Y2R2 whole entry): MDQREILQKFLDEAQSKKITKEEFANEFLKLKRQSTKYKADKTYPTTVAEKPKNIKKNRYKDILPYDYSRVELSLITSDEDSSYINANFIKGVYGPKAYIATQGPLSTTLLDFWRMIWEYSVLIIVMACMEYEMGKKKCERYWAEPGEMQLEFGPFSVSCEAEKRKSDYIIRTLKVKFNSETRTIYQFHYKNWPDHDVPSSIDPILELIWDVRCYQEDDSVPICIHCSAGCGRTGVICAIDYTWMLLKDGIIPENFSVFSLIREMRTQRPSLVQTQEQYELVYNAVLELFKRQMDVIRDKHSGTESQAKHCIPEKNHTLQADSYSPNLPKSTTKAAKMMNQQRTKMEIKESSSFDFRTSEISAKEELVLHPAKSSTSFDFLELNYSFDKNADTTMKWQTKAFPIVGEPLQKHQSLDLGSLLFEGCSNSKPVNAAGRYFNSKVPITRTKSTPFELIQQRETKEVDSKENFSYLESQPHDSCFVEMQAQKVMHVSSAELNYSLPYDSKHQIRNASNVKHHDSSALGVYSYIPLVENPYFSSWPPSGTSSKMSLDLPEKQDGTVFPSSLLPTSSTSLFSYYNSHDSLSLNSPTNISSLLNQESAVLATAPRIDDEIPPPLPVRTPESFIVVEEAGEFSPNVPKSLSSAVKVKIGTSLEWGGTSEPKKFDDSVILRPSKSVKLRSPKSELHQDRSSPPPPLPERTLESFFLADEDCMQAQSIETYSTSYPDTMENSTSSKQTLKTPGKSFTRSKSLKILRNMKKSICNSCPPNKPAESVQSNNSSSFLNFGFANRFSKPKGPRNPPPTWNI
Type of experiment: functional.

Experiment [12] deals with T5, Tyrosine-protein phosphatase non-receptor type 22. Format: functional. The source holds these as a separate data set.
The target in experiment [13] is T6, Corticotropin-releasing factor receptor 2/Corticotropin-releasing factor-binding protein (Homo sapiens, UniProt P24387+Q13324).
T6 sequence (Q13324 whole entry): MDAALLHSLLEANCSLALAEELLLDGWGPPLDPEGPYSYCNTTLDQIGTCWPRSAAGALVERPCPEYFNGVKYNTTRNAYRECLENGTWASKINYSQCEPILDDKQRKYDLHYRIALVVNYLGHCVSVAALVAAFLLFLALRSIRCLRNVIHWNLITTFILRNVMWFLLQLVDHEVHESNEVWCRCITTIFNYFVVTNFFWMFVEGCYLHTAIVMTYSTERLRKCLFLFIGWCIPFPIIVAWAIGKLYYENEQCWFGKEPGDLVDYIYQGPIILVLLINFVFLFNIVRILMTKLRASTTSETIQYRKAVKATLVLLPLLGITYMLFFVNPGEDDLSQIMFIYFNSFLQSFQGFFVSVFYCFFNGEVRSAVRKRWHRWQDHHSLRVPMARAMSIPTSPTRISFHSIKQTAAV
T6 sequence (P24387 whole entry): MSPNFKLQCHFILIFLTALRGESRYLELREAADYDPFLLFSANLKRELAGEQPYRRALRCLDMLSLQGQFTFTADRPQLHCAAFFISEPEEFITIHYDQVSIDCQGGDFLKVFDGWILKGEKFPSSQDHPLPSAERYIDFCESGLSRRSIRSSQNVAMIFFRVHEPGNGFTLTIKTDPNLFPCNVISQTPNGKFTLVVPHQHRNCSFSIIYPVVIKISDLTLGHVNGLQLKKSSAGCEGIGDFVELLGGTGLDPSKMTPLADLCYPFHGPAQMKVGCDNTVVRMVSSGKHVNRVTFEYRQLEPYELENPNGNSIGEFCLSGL
The experiment can be described thus: activators of CRF receptor 2 with binding protein – uHTS hits, confirmation (AID 602473). Format: functional. The settings on record: read-out: EC50_Mean.

Experiment [14] concerns the target Protein-arginine deiminase type-4 (Homo sapiens, UniProt Q9UM07). The experiment can be described thus: human PAD4 inhibitor potency, dose response, biochemical, fluorescence readout (AID 492970).

Chain of Protein-arginine deiminase type-4 (Q9UM07 whole entry): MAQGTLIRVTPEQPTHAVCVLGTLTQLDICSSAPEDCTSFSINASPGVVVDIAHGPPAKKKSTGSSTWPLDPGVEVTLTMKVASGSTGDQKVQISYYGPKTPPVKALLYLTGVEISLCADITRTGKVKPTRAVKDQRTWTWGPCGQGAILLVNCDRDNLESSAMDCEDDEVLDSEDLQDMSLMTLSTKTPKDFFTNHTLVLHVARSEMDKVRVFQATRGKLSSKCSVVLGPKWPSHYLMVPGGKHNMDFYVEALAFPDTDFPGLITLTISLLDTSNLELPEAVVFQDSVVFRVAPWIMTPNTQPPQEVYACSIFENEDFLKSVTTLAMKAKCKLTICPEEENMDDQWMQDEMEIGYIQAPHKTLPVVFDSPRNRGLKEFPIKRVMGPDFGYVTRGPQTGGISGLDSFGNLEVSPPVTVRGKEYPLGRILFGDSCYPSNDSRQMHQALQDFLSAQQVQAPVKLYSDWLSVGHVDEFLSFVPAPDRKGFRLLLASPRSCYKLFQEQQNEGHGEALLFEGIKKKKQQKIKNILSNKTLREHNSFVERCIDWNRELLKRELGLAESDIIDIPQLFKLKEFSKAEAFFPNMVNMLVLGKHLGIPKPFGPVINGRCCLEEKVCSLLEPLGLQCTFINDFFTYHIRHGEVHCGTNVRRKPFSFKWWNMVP
Chain of Beta-lactamase (Salmonella choleraesuis (strain SC-B67), UniProt Q5J463) (Q5J463 whole entry): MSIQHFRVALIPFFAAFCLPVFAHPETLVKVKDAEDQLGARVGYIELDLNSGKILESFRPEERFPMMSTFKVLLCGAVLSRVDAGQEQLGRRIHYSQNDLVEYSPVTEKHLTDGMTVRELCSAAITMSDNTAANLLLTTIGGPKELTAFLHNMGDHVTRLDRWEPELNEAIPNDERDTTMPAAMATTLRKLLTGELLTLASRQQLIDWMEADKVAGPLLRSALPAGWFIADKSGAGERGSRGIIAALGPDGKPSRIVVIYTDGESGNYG
Chain of ORF 73 (O40947 whole entry): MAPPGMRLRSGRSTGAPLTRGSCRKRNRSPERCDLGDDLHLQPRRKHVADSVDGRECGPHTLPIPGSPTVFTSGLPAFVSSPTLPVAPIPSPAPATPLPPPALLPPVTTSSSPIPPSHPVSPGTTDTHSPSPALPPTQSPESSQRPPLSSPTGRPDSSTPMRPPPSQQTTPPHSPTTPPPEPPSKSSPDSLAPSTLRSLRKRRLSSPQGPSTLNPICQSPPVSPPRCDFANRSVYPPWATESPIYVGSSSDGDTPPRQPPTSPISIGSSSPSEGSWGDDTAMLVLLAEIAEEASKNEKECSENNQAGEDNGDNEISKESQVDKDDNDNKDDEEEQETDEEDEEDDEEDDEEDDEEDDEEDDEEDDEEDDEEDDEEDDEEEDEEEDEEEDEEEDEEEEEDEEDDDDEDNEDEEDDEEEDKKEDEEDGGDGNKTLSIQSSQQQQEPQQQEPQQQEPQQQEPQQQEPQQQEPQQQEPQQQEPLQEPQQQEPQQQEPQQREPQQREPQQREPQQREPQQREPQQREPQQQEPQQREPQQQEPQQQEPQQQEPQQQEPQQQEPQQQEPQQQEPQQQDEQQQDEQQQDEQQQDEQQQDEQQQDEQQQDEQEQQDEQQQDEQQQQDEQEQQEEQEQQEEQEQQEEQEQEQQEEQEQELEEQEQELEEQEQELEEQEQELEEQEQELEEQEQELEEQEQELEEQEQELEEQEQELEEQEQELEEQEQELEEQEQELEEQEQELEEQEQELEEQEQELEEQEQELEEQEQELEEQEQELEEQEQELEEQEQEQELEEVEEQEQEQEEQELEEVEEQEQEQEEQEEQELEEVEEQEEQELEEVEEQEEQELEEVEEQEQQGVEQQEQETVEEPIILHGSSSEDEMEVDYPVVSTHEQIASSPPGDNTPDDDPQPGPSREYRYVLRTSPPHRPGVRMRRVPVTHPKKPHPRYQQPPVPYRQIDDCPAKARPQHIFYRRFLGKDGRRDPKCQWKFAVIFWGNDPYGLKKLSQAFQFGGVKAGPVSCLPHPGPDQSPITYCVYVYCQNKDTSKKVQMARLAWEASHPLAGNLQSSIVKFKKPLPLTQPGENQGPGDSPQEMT

In the case of `CN(C)/C=C1\C=C2C(=O)c3ccccc3N2C1=O`, the EC50 on Troponin, cardiac muscle is > 0.0109 µM (active); on Insulin-degrading enzyme [3] it was > 54.7 µM (inactive); in experiment [4], > 0.0327 µM (active); with HEK293 [5] it was > 54.7 µM (inactive); on Insulin-degrading enzyme [7], > 54.7 µM (inactive). Moreover, the IC50 (commonly the concentration that inhibits the measured activity by half) at Beta-lactamase [1] was 1.02 µM (active); in the experiment with HEK293 [2] it was > 89.2 µM (inactive); on Beta-lactamase [6] it was 0.372 µM (active). The AC50 (as a rule, the midpoint of the concentration-response curve, whichever way the signal moves) at ORF 73 is 0.051 µM (active).
Take `Cc1ccc(NC(=O)C2CCN(c3ncnc4c3nc3n4CCCCC3)CC2)cc1Cl`: the values for the IC50 (in [8]; on Bcl-2-related protein A1; in [9]) were 6.92 µM (active), > 20 µM (inactive) and 16 µM (active), respectively.
As for `c1ccc2c(CN3CCCCC3)csc2c1`, the IC50 in experiment [10], in [11] and in [12] was > 79.4 µM (inactive) in each case. The EC50 in experiment [13] is 14.6 µM (active).
As to `NNC(=O)/C(=C\c1ccco1)NC(=O)c1ccccc1`, the IC50 in experiment [14] is > 100 µM (inactive).
